In general, GI50 refers to the concentration that inhibits growth by half. As a reminder, the EC50 is the concentration that produces a half-maximal response. One may read the IC50 as the concentration that inhibits the measured activity by half.

These results are taken from publication PMC3858179 (Journal of medicinal chemistry, 2008).

Read-outs that look alike come from different tables or passages of the source. A value given as a limit tells only on which side of the number the result lay.

Test [1] has as its system RPMI-8226. To be noted: read-out: GI50 RPMI-8226; Leukemia; cited from earlier work.
Test [2] concerns MOLT-4. The settings on record: read-out: GI50 MOLT-4; Leukemia; cited from earlier work.
For test [3], the system named is HT29. To be noted: read-out: GI50 HT29; Colon Cancer; cited from earlier work.
Test [4] concerns human CCRF-CEM leukemia cells. The settings on record: read-out: EC50 growth of human CCRF-CEM leukemia cells in culture; cited from earlier work.
Test [5] relates to 60 tumor cell lines. The settings on record: in 11 of the 60 tumor cell lines evaluated; cited from earlier work.
Test [6] has as its system U251. The settings on record: read-out: GI50 U251; Central Nervous System Cancer; cited from earlier work.
The test system of test [7] is ACHN. The settings on record: read-out: GI50 ACHN; Renal Cancer; cited from earlier work.
Test [8] concerns HL-60 × (TB). To be noted: read-out: GI50 HL-60 × (TB); Leukemia; cited from earlier work.
In test [9] the test system is folyl poly-γ-glutamate synthetase (FPGS). The settings on record: cited from earlier work.
In test [10] the test system is K-562. To be noted: read-out: GI50 K-562; Leukemia; cited from earlier work.
Test [11] relates to HCT 15. To be noted: read-out: GI50 HCT 15; Colon Cancer; cited from earlier work.
Test [12] relates to SW-620. To be noted: read-out: GI50 SW-620; Colon Cancer; cited from earlier work.
The subject of test [13] is NCI-H460. To be noted: read-out: GI50 NCI-H460; Nonsmall Cell Lung Cancer; cited from earlier work.
Test [14] deals with SF268. The settings on record: read-out: GI50 SF268; Central Nervous System Cancer; cited from earlier work.
Test [15] relates to CAKI-1. The settings on record: read-out: GI50 CAKI-1; Renal Cancer; cited from earlier work.
In test [16] the test system is MCF-7. The settings on record: read-out: GI50 MCF-7; Breast Cancer; cited from earlier work.
Test [17] has as its system CCRF-CEM. The settings on record: read-out: GI50 CCRF-CEM; Leukemia; cited from earlier work.
Test [18] has as its system PC-3. The settings on record: read-out: GI50 PC-3; Prostrate Cancer; cited from earlier work.
The target in test [19] is T1, human DHFR (Homo sapiens, UniProt P00374).
T1 sequence (P00374 1-187): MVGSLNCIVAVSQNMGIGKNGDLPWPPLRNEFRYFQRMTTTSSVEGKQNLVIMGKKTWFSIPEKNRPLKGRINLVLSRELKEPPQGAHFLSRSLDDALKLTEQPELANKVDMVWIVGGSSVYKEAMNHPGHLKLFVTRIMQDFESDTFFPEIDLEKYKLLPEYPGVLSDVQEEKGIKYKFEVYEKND
The experiment in a line: Inhibition of isolated human DHFR. The class given is biochemical.

In test [20] the target is T2, T. gondii DHFR (Toxoplasma gondii, UniProt Q07422).
T2 sequence (Q07422 1-610): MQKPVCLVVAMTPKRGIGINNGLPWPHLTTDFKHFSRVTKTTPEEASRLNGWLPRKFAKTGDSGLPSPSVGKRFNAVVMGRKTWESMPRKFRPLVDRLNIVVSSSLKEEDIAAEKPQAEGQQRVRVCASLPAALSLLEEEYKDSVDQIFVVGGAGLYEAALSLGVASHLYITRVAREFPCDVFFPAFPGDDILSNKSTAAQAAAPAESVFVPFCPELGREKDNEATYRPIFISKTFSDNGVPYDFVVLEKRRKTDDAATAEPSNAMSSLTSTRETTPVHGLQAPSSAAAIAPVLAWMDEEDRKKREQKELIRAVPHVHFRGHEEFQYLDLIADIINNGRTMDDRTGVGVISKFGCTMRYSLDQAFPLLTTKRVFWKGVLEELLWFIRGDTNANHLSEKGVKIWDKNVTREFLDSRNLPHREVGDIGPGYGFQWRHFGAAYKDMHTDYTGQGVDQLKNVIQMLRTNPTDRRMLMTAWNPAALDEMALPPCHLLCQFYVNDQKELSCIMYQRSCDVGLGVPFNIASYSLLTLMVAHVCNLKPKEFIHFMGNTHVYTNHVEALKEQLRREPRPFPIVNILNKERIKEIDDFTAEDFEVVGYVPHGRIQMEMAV
In kind it is biochemical. To be noted: 20 compounds jointly assayed, by both protocols (Table 1 and Table 2 conditions).

In test [21] the test system is MOLT-4. Put plainly: NCI tumor cell growth inhibition, MOLT-4. The settings on record: Homo sapiens, MOLT-4, read-out: GI50 MOLT-4. The class given is cell-based.
For test [22], the system named is NCI-H460. Put plainly: NCI tumor cell growth inhibition, NCI-H460. To be noted: Homo sapiens, NCI-H460, read-out: GI50 NCI-H460. In kind it is cell-based.
In test [23] the test system is U251. Put plainly: NCI tumor cell growth inhibition, U251. In kind it is cell-based. To be noted: Homo sapiens, U-251, read-out: GI50 U251.
Test [24] has as its system K-562. Put plainly: NCI tumor cell growth inhibition, K-562. In kind it is cell-based. To be noted: Homo sapiens, K562, read-out: GI50 K-562.
The subject of test [25] is ACHN. The experiment in a line: NCI tumor cell growth inhibition, ACHN. The class given is cell-based. To be noted: Homo sapiens, read-out: GI50 ACHN.
Test [26] deals with SW-620. Put plainly: NCI tumor cell growth inhibition, SW-620. The class given is cell-based. To be noted: Homo sapiens, SW-620, read-out: GI50 SW-620.
Test [27] deals with human TS (Homo sapiens, UniProt P04818). Put plainly: Inhibition of isolated human TS. In kind it is biochemical.
Chain of human TS (P04818 whole entry): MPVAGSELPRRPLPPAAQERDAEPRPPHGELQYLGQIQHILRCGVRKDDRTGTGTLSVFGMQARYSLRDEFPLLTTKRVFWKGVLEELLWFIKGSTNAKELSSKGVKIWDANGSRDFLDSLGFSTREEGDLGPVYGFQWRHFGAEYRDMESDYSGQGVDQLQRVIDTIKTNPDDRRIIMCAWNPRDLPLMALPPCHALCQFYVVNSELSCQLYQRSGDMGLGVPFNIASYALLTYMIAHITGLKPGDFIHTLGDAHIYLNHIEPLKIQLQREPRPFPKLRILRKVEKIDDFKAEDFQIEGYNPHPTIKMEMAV
For test [28], the system named is LOX IMVI. The experiment in a line: NCI tumor cell growth inhibition, LOX IMVI. To be noted: Homo sapiens, read-out: GI50 LOX IMVI. In kind it is cell-based.
Test [29] concerns CAKI-1. The experiment in a line: NCI tumor cell growth inhibition, CAKI-1. In kind it is cell-based. To be noted: Homo sapiens, CAKI-1, read-out: GI50 CAKI-1.
The subject of test [30] is 60 tumor cell lines. The experiment in a line: NCI in vitro preclinical antitumor screening, 60 tumor cell lines. The class given is cell-based.
Test [31] has as its system HCT 15. The experiment in a line: NCI tumor cell growth inhibition, HCT 15. In kind it is cell-based. To be noted: Homo sapiens, HCT-15, read-out: GI50 HCT 15.
Test [32] has as its system HL-60 × (TB). Put plainly: NCI tumor cell growth inhibition, HL-60 ×. To be noted: Homo sapiens, HL-60, read-out: GI50 HL-60 × (TB). The class given is cell-based.
Test [33] deals with P. carinii DHFR (Pneumocystis carinii, UniProt P16184). Put plainly: biochemical.
Chain of P. carinii DHFR (P16184 whole entry): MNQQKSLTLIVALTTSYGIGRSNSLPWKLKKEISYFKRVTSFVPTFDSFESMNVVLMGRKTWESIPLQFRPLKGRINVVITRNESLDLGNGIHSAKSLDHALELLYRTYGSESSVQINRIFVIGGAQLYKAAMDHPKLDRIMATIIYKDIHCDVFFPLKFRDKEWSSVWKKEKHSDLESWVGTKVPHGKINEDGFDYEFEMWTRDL
Test [34] deals with CCRF-CEM. Put plainly: NCI tumor cell growth inhibition, CCRF-CEM. The class given is cell-based. The settings on record: Homo sapiens, read-out: GI50 CCRF-CEM.
Test [35] relates to RPMI-8226. Put plainly: NCI tumor cell growth inhibition, RPMI-8226. The class given is cell-based. The settings on record: Homo sapiens, RPMI-8226, read-out: GI50 RPMI-8226.
Test [36] has as its target M. avium DHFR (Mycobacterium avium, UniProt O30463). The experiment in a line: Inhibition of isolated M. avium DHFR. The class given is biochemical.
Test [37] relates to HT29. The experiment in a line: NCI tumor cell growth inhibition, HT29. The class given is cell-based. To be noted: Homo sapiens, HT-29, read-out: GI50 HT29.
The target in test [38] is rat liver DHFR (Rattus norvegicus, UniProt Q920D2). The experiment in a line: Inhibition of isolated rat liver DHFR. The class given is biochemical.
Chain of rat liver DHFR (Q920D2 whole entry): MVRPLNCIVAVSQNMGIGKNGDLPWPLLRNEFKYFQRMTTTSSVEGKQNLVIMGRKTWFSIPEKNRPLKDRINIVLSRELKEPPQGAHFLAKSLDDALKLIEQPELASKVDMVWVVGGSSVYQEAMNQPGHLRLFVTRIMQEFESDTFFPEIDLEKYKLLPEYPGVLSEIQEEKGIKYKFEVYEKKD
The test system of test [39] is SF268. The experiment in a line: NCI tumor cell growth inhibition, SF268. In kind it is cell-based. The settings on record: Homo sapiens, SF-268, read-out: GI50 SF268.

Chain of M. avium DHFR (O30463 1-181): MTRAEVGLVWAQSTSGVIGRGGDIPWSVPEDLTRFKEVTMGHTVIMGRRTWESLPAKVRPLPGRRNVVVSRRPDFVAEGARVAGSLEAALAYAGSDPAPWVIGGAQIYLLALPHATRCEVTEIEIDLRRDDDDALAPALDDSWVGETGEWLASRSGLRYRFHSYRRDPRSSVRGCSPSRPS

In the case of `Cc1c(Sc2ccc(C(=O)N[C@@H](CCC(=O)O)C(=O)O)cc2)[nH]c2nc(N)nc(N)c12` [Compound 1], the GI50 in [1] was < 10 nM; in test [2], < 10 nM; in [3], 160 nM; in [5], ≤ 100 nM; in test [6] it was 824 nM; in test [7] it was 24200 nM. The concentration for 50% growth inhibition (GI50) was 43.5 nM in test [8]; 29.5 nM in test [10]; 59500 nM in test [11]; 124 nM in test [12]; 631 nM in [13]; 74700 nM in test [14]. The GI50 was > 100000 nM in [15], > 100000 nM in [16], 221 nM in test [17] and 43.6 nM in test [18]. Moreover, the EC50 in [4] was 190 nM. For the same compound, in [9], the FPGS substrate activity result is “reasonable”.

On to `CC(C)c1c(Sc2ccc(C(=O)N[C@@H](CCC(=O)O)C(=O)O)cc2)[nH]c2nc(N)nc(N)c12` [Compound 4, N-[4-[(2,4-Diamino-5-isopropyl-7H-pyrrolo[2,3-d]pyrimidin-6-yl)sulfanyl]-benzoyl]-L-glutamate], for which the IC50 in test [19] worked out at 90 nM; in test [33], 4.8 nM; in [36], 0.391 nM; in [38], 186 nM. The “fold less potent as hDHFR inhibitor compared with MTX” value in test [19] is recorded as ~4 fold. In [19], the “fold more potent than pemetrexed as hDHFR inhibitor” value is reported as ~17 fold. The “inhibition of hDHFR, in words” value in test [19] is reported as “good inhibitors”. In test [20], the “potency rank against T. gondii DHFR, in words” value is “three most potent compounds”. Further, the GI50 is 1310 nM in [21]; 6450 nM in test [22]; 7240 nM in test [23]; 932 nM in test [24]; 7390 nM in test [25]; 4710 nM in test [26]. In addition, the GI50 in test [28] is 1140 nM; in [29], 4250 nM; in test [30] it was < 1000 nM; in test [31], 34800 nM; in test [32] it was 5650 nM; in test [34], 536 nM. The figures for the GI50 in [35], in test [37] and in test [39] were 7740 nM, 5760 nM and 17800 nM, respectively. Moreover, the “fold less inhibitory than pemetrexed against hTS” value in test [27] came to 4 fold. The “fold less potent than 1 as inhibitor of hTS” value in test [27] is 63-74 fold. Moreover, the Selectivity ratio rl/pc in test [33] (IC50 rat liver DHFR/IC50 P. carinii DHFR) is 38.8. The Selectivity ratio rl/ma in [36] (IC50 rat liver DHFR/IC50 M. avium DHFR) was 475.7.
